Measurements reported in patent US6737383B1, “Herbicidal oxadiazolidines” (priority 1999, dated 2004).

Experiments:
[1] = tested on: velvetleaf; assay: Test B pre/postemergence velvetleaf; format: in vivo, Abutilon theophrasti
How it was run: (§1)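 Herbicidal effect was estimated by eye on a ten-point control scale after plants spent twelve to sixteen days in a greenhouse following soil or foliar treatment. Foliar sprays targeted plants at one to four leaves; all doses were formulated in a non-phytotoxic solvent with surfactant.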

[2] = tested on: purple nutsedge; assay: Test B pre/postemergence purple nutsedge; format: in vivo, Cyperus rotundus
How it was run: as §1

[3] = tested on: morningglory; assay: Test B pre/postemergence morningglory; format: in vivo, Ipomoea hederacea
How it was run: as §1

[4] = tested on: wild oat; assay: Test B pre/postemergence wild oat; format: in vivo, Avena fatua
How it was run: as §1

[5] = tested on: surinam grass; assay: Test B pre/postemergence surinam grass; format: in vivo, Brachiaria decumbens
How it was run: as §1

[6] = tested on: soybean; assay: Test B pre/postemergence soybean; format: in vivo, Glycine max
How it was run: as §1

[7] = tested on: smallflower flatsedge; assay: Test B flood test smallflower flatsedge; format: in vivo, Cyperus difformis
How it was run: (§2)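 Each value is a visual injury score relative to controls, with 10 meaning complete control and 0 no effect. Evaluation took place twelve to sixteen days after the 2-leaf-stage plants were treated and kept in the greenhouse.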

[8] = tested on: giant foxtail; assay: Test B pre/postemergence giant foxtail; format: in vivo, Setaria faberii
How it was run: as §1

[9] = tested on: wheat; assay: Test B pre/postemergence wheat; format: in vivo, Triticum aestivum
How it was run: as §1

[10] = tested on: pigweed; assay: Test B pre/postemergence pigweed; format: in vivo, Amaranthus retroflexus
How it was run: as §1

[11] = tested on: bedstraw; assay: Test B pre/postemergence bedstraw; format: in vivo, Galium aparine
How it was run: as §1

[12] = tested on: blackgrass; assay: Test B pre/postemergence blackgrass; format: in vivo, Alopecurus myosuroides
How it was run: as §1

[13] = tested on: cocklebur; assay: Test B pre/postemergence cocklebur; format: in vivo, Xanthium strumarium
How it was run: as §1

[14] = tested on: rape; assay: Test B pre/postemergence rape; format: in vivo, Brassica napus
How it was run: as §1

[15] = tested on: bamyardgrass; assay: Test B flood test barnyardgrass; format: in vivo, Echinochloa crus-galli
How it was run: as §2

[16] = tested on: duck salad; assay: Test B flood test duck salad; format: in vivo, Heteranthera limosa
How it was run: as §2

[17] = Postemergence, Rate 62 g/ha, scale 0 to 10, 0 is no effect, 10 is complete control
[18] = Postemergence, Rate 250 g/ha, scale 0 to 10, 0 no effect, 10 complete control
[19] = Preemergence, Rate 62 g/ha, scale 0 to 10, 0 is no effect, 10 is complete control
[20] = Preemergence, Rate 125 g/ha, scale 0 to 10 (0 no effect, 10 complete control)
[21] = Preemergence, Rate 250 g/ha, scale of 0 to 10 where 0 is no effect and 10 is complete control
[22] = Preemergence, Rate 500 g/ha, scale 0 (no effect) to 10 (complete control)
[23] = Rate 125 g/ha, Postemergence, scale 0 to 10, 0 no effect, 10 complete control
[24] = Rate 500 g/ha, Postemergence, 0 to 10 scale (0 no effect, 10 complete control)
[25] = Rate 125 g/ha, Postemergence section (flood test species), scale 0 to 10, 0 no effect, 10 complete control
[26] = flood test, listed under Postemergence, Rate 250 g/ha, scale 0 to 10, 0 no effect, 10 complete control
[27] = Rate 500 g/ha, Postemergence section of Table B, 0 to 10 scale (0 no effect, 10 complete control)

CCc1ccccc1-n1c(=O)on(C(=O)N(c2ccc(F)cc2)C(C)C)c1=O [Compound 34]
Velvetleaf plant response rating [1, 17]: 0 | Velvetleaf plant response rating [1, 18]: 2 | Plant response rating, Velvetleaf [1, 19]: 0 | Plant response rating, Velvetleaf [1, 20]: 0 | Plant response rating, Velvetleaf [1, 21]: 0 | Velvetleaf plant response rating [1, 22]: 2 | Velvetleaf plant response rating [1, 23]: 0 | Nutsedge plant response rating [2, 17]: 0 | Nutsedge plant response rating [2, 18]: 0 | Plant response rating, Nutsedge [2, 19]: 0 | Plant response rating, Nutsedge [2, 20]: 0 | Plant response rating, Nutsedge [2, 21]: 0 | Nutsedge plant response rating [2, 22]: 0 | Nutsedge plant response rating [2, 23]: 0 | Nutsedge plant response rating [2, 24]: 0 | Morningglory plant response rating [3, 17]: 1 | Morningglory plant response rating [3, 18]: 5 | Plant response rating, Morningglory [3, 19]: 0 | Plant response rating, Morningglory [3, 20]: 0 | Plant response rating, Morningglory [3, 21]: 0 | Morningglory plant response rating [3, 22]: 0 | Morningglory plant response rating [3, 23]: 2 | Morningglory plant response rating [3, 24]: 8 | Wild oats plant response rating [4, 17]: 0 | Wild oats plant response rating [4, 18]: 0 | Plant response rating, Wild oats [4, 20]: 0 | Plant response rating, Wild oats [4, 21]: 2 | Wild oats plant response rating [4, 22]: 7 | Wild oats plant response rating [4, 23]: 0 | B. signalgrass plant response rating [5, 17]: 0 | B. signalgrass plant response rating [5, 18]: 0 | Plant response rating, B. signalgrass [5, 19]: 0 | Plant response rating, B. signalgrass [5, 20]: 1 | Plant response rating, B. signalgrass [5, 21]: 2 | B. signalgrass plant response rating [5, 22]: 3 | B. signalgrass plant response rating [5, 23]: 0 | B. signalgrass plant response rating [5, 24]: 0 | Soybean plant response rating [6, 17]: 0 | Soybean plant response rating [6, 18]: 0 | Plant response rating, Soybean [6, 19]: 0 | Plant response rating, Soybean [6, 20]: 0 | Plant response rating, Soybean [6, 21]: 0 | Soybean plant response rating [6, 22]: 0 | Soybean plant response rating [6, 23]: 0 | S. Flatsedge plant response rating [7, 17]: 0 | S. Flatsedge plant response rating [7, 25]: 0 | S. Flatsedge plant response rating [7, 26]: 0 | Giant foxtail plant response rating [8, 17]: 0 | Giant foxtail plant response rating [8, 18]: 2 | Plant response rating, Giant foxtail [8, 19]: 2 | Plant response rating, Giant foxtail [8, 20]: 6 | Plant response rating, Giant foxtail [8, 21]: 10 | Giant foxtail plant response rating [8, 22]: 10 | Giant foxtail plant response rating [8, 23]: 0 | Giant foxtail plant response rating [8, 24]: 8 | Wheat plant response rating [9, 17]: 0 | Wheat plant response rating [9, 18]: 0 | Plant response rating, Wheat [9, 19]: 0 | Plant response rating, Wheat [9, 20]: 0 | Plant response rating, Wheat [9, 21]: 0 | Wheat plant response rating [9, 22]: 2 | Wheat plant response rating [9, 23]: 0 | Redroot pigweed plant response rating [10, 17]: 0 | Redroot pigweed plant response rating [10, 18]: 6 | Plant response rating, Redroot pigweed [10, 19]: 0 | Plant response rating, Redroot pigweed [10, 20]: 2 | Plant response rating, Redroot pigweed [10, 21]: 6 | Redroot pigweed plant response rating [10, 22]: 6 | Redroot pigweed plant response rating [10, 23]: 0 | Redroot pigweed plant response rating [10, 24]: 7 | Bedstraw plant response rating [11, 17]: 4 | Bedstraw plant response rating [11, 18]: 6 | Plant response rating, Bedstraw [11, 19]: 0 | Plant response rating, Bedstraw [11, 20]: 0 | Plant response rating, Bedstraw [11, 21]: 0 | Bedstraw plant response rating [11, 22]: 0 | Bedstraw plant response rating [11, 23]: 4 | Bedstraw plant response rating [11, 24]: 7 | Blackgrass plant response rating [12, 17]: 0 | Blackgrass plant response rating [12, 18]: 6 | Plant response rating, Blackgrass [12, 19]: 3 | Plant response rating, Blackgrass [12, 20]: 5 | Plant response rating, Blackgrass [12, 21]: 6 | Blackgrass plant response rating [12, 22]: 6 | Blackgrass plant response rating [12, 23]: 2 | Blackgrass plant response rating [12, 24]: 9 | Cocklebur plant response rating [13, 17]: 0 | Cocklebur plant response rating [13, 18]: 0 | Plant response rating, Cocklebur [13, 19]: 0 | Plant response rating, Cocklebur [13, 20]: 0 | Plant response rating, Cocklebur [13, 21]: 0 | Cocklebur plant response rating [13, 22]: 0 | Cocklebur plant response rating [13, 23]: 0 | Cocklebur plant response rating [13, 24]: 4 | Rape plant response rating [14, 17]: 0 | Rape plant response rating [14, 18]: 0 | Plant response rating, Rape [14, 19]: 0 | Plant response rating, Rape [14, 20]: 0 | Plant response rating, Rape [14, 21]: 0 | Rape plant response rating [14, 22]: 3 | Rape plant response rating [14, 23]: 0 | Rape plant response rating [14, 24]: 0 | Barnyardgrass plant response rating [15, 17]: 0 | Barnyardgrass plant response rating [15, 25]: 0 | Barnyardgrass plant response rating [15, 27]: 0 | Barnyardgrass plant response rating [15, 26]: 0 | Ducksalad plant response rating [16, 17]: 0 | Ducksalad plant response rating [16, 25]: 0 | Ducksalad plant response rating [16, 27]: 0 | Ducksalad plant response rating [16, 26]: 0
